# Assay results reported in PubChem BioAssay AID256 (DTP/NCI, 2004).
# Values joined by “and” are separate entries in the source; they are usually repeats but may differ in a detail not shown here. Equal values may be shown once. Inconclusive results and toxic doses are left out.
# Test system: CD2F1 mice, L1210 leukemia ip, survival T/C
# Assay: NCI In Vivo Anticancer Drug Screen. Data for tumor model L1210 Leukemia (intraperitoneal) in CD2F1 (CDF1) mice
# Settings: higher = longer survival
# Summary of the method: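 Transplantable tumor in mice; compound-treated vs vehicle-treated groups. Read-out = treated/control ratio of the measured endpoint.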
smiles,measurement,setting,value
O=C1NC2(CCCCC2)C(=O)N1CCN(CCCl)CCCl,T/C,"endpoint: median survival time, dose: 0.5 mg/kg/injection, schedule: Q03HX024 (ip), vehicle: Klucel (hydroxypropylcellulose) (HPC)",98 % of control
same,T/C,"endpoint: median survival time, dose: 1.0 mg/kg/injection, schedule: Q01DX009 (ip), vehicle: Klucel (hydroxypropylcellulose) (HPC)",101 % of control
same,T/C,"endpoint: median survival time, dose: 1.0 mg/kg/injection, schedule: Q01DX009 (sc), vehicle: Klucel (hydroxypropylcellulose) (HPC)",98 % of control
same,T/C,"endpoint: median survival time, dose: 1.0 mg/kg/injection, schedule: Q03HX016 (ip), vehicle: Klucel (hydroxypropylcellulose) (HPC)",96 % of control
same,T/C,"endpoint: median survival time, dose: 1.0 mg/kg/injection, schedule: Q03HX024 (ip), vehicle: Klucel (hydroxypropylcellulose) (HPC)",98 % of control
same,T/C,"endpoint: median survival time, dose: 2.0 mg/kg/injection, schedule: Q01DX009 (ip), vehicle: Klucel (hydroxypropylcellulose) (HPC)",101 % of control
same,T/C,"endpoint: median survival time, dose: 2.0 mg/kg/injection, schedule: Q01DX009 (sc), vehicle: Klucel (hydroxypropylcellulose) (HPC)",101 % of control
same,T/C,"endpoint: median survival time, dose: 2.0 mg/kg/injection, schedule: Q03HX008 (ip), vehicle: Klucel (hydroxypropylcellulose) (HPC)",110 % of control
same,T/C,"endpoint: median survival time, dose: 2.0 mg/kg/injection, schedule: Q03HX016 (ip), vehicle: Klucel (hydroxypropylcellulose) (HPC)",104 % of control
same,T/C,"endpoint: median survival time, dose: 2.0 mg/kg/injection, schedule: Q03HX024 (ip), vehicle: Klucel (hydroxypropylcellulose) (HPC)",106 % of control
same,T/C,"endpoint: median survival time, dose: 4.0 mg/kg/injection, schedule: Q01DX009 (ip), vehicle: Klucel (hydroxypropylcellulose) (HPC)",107 % of control
same,T/C,"endpoint: median survival time, dose: 4.0 mg/kg/injection, schedule: Q01DX009 (oral), vehicle: Klucel (hydroxypropylcellulose) (HPC)",123 % of control
same,T/C,"endpoint: median survival time, dose: 4.0 mg/kg/injection, schedule: Q01DX009 (sc), vehicle: Klucel (hydroxypropylcellulose) (HPC)",103 % of control
same,T/C,"endpoint: median survival time, dose: 4.0 mg/kg/injection, schedule: Q03HX008 (ip), vehicle: Klucel (hydroxypropylcellulose) (HPC)",106 % of control
same,T/C,"endpoint: median survival time, dose: 4.0 mg/kg/injection, schedule: Q03HX016 (ip), vehicle: Klucel (hydroxypropylcellulose) (HPC)",103 % of control
same,T/C,"endpoint: median survival time, dose: 4.0 mg/kg/injection, schedule: Q03HX024 (ip), vehicle: Klucel (hydroxypropylcellulose) (HPC)",109 % of control
same,T/C,"endpoint: median survival time, dose: 4.0 mg/kg/injection, schedule: Q04DX003 (ip), vehicle: Klucel (hydroxypropylcellulose) (HPC)",100 % of control
same,T/C,"endpoint: median survival time, dose: 6.0 mg/kg/injection, schedule: Q01DX009 (ip), vehicle: Klucel (hydroxypropylcellulose) (HPC)",153 % of control
same,T/C,"endpoint: median survival time, dose: 8.0 mg/kg/injection, schedule: Q01DX009 (ip), vehicle: Klucel (hydroxypropylcellulose) (HPC)",106 % of control
same,T/C,"endpoint: median survival time, dose: 8.0 mg/kg/injection, schedule: Q01DX009 (oral), vehicle: Klucel (hydroxypropylcellulose) (HPC)",115 % of control
same,T/C,"endpoint: median survival time, dose: 8.0 mg/kg/injection, schedule: Q01DX009 (sc), vehicle: Klucel (hydroxypropylcellulose) (HPC)",114 % of control
same,T/C,"endpoint: median survival time, dose: 8.0 mg/kg/injection, schedule: Q03HX008 (ip), vehicle: Klucel (hydroxypropylcellulose) (HPC)",115 % of control
same,T/C,"endpoint: median survival time, dose: 8.0 mg/kg/injection, schedule: Q03HX016 (ip), vehicle: Klucel (hydroxypropylcellulose) (HPC)",111 % of control
same,T/C,"endpoint: median survival time, dose: 8.0 mg/kg/injection, schedule: Q03HX024 (ip), vehicle: Klucel (hydroxypropylcellulose) (HPC)",122 % of control
same,T/C,"endpoint: median survival time, dose: 8.0 mg/kg/injection, schedule: Q04DX003 (ip), vehicle: Klucel (hydroxypropylcellulose) (HPC)",103 % of control
same,T/C,"endpoint: median survival time, dose: 8.0 mg/kg/injection, schedule: Q08DX002 (ip), vehicle: Klucel (hydroxypropylcellulose) (HPC)",106 % of control
same,T/C,"endpoint: median survival time, dose: 9.0 mg/kg/injection, schedule: Q01DX009 (ip), vehicle: Klucel (hydroxypropylcellulose) (HPC)",157 % of control and 164 % of control
same,T/C,"endpoint: median survival time, dose: 13.0 mg/kg/injection, schedule: Q01DX009 (ip), vehicle: Klucel (hydroxypropylcellulose) (HPC)",164 % of control and 176 % of control
same,T/C,"endpoint: median survival time, dose: 16.0 mg/kg/injection, schedule: Q01DX001 (ip), vehicle: Klucel (hydroxypropylcellulose) (HPC)",116 % of control
same,T/C,"endpoint: median survival time, dose: 16.0 mg/kg/injection, schedule: Q01DX001 (sc), vehicle: Klucel (hydroxypropylcellulose) (HPC)",92 % of control
same,T/C,"endpoint: median survival time, dose: 16.0 mg/kg/injection, schedule: Q01DX009 (ip), vehicle: Klucel (hydroxypropylcellulose) (HPC)",112 % of control
same,T/C,"endpoint: median survival time, dose: 16.0 mg/kg/injection, schedule: Q01DX009 (oral), vehicle: Klucel (hydroxypropylcellulose) (HPC)",112 % of control
same,T/C,"endpoint: median survival time, dose: 16.0 mg/kg/injection, schedule: Q01DX009 (sc), vehicle: Klucel (hydroxypropylcellulose) (HPC)",107 % of control
same,T/C,"endpoint: median survival time, dose: 16.0 mg/kg/injection, schedule: Q03HX008 (ip), vehicle: Klucel (hydroxypropylcellulose) (HPC)",122 % of control
same,T/C,"endpoint: median survival time, dose: 16.0 mg/kg/injection, schedule: Q04DX003 (ip), vehicle: Klucel (hydroxypropylcellulose) (HPC)",113 % of control
same,T/C,"endpoint: median survival time, dose: 16.0 mg/kg/injection, schedule: Q08DX002 (ip), vehicle: Klucel (hydroxypropylcellulose) (HPC)",109 % of control
same,T/C,"endpoint: median survival time, dose: 32.0 mg/kg/injection, schedule: Q01DX001 (ip), vehicle: Klucel (hydroxypropylcellulose) (HPC)",122 % of control
same,T/C,"endpoint: median survival time, dose: 32.0 mg/kg/injection, schedule: Q01DX001 (oral), vehicle: Klucel (hydroxypropylcellulose) (HPC)",100 % of control
same,T/C,"endpoint: median survival time, dose: 32.0 mg/kg/injection, schedule: Q01DX001 (sc), vehicle: Klucel (hydroxypropylcellulose) (HPC)",101 % of control
same,T/C,"endpoint: median survival time, dose: 32.0 mg/kg/injection, schedule: Q01DX009 (oral), vehicle: Klucel (hydroxypropylcellulose) (HPC)",123 % of control
same,T/C,"endpoint: median survival time, dose: 32.0 mg/kg/injection, schedule: Q01DX009 (sc), vehicle: Klucel (hydroxypropylcellulose) (HPC)",106 % of control
same,T/C,"endpoint: median survival time, dose: 32.0 mg/kg/injection, schedule: Q04DX003 (ip), vehicle: Klucel (hydroxypropylcellulose) (HPC)",114 % of control
same,T/C,"endpoint: median survival time, dose: 32.0 mg/kg/injection, schedule: Q08DX002 (ip), vehicle: Klucel (hydroxypropylcellulose) (HPC)",114 % of control
same,T/C,"endpoint: median survival time, dose: 64.0 mg/kg/injection, schedule: Q01DX001 (ip), vehicle: Klucel (hydroxypropylcellulose) (HPC)",117 % of control
same,T/C,"endpoint: median survival time, dose: 64.0 mg/kg/injection, schedule: Q01DX001 (oral), vehicle: Klucel (hydroxypropylcellulose) (HPC)",101 % of control
same,T/C,"endpoint: median survival time, dose: 64.0 mg/kg/injection, schedule: Q01DX001 (sc), vehicle: Klucel (hydroxypropylcellulose) (HPC)",102 % of control
same,T/C,"endpoint: median survival time, dose: 64.0 mg/kg/injection, schedule: Q01DX009 (oral), vehicle: Klucel (hydroxypropylcellulose) (HPC)",124 % of control
same,T/C,"endpoint: median survival time, dose: 64.0 mg/kg/injection, schedule: Q08DX002 (ip), vehicle: Klucel (hydroxypropylcellulose) (HPC)",119 % of control
same,T/C,"endpoint: median survival time, dose: 128.0 mg/kg/injection, schedule: Q01DX001 (oral), vehicle: Klucel (hydroxypropylcellulose) (HPC)",104 % of control
same,T/C,"endpoint: median survival time, dose: 128.0 mg/kg/injection, schedule: Q01DX001 (sc), vehicle: Klucel (hydroxypropylcellulose) (HPC)",105 % of control
same,T/C,"endpoint: median survival time, dose: 128.0 mg/kg/injection, schedule: Q08DX002 (ip), vehicle: Klucel (hydroxypropylcellulose) (HPC)",110 % of control
same,T/C,"endpoint: median survival time, dose: 256.0 mg/kg/injection, schedule: Q01DX001 (ip), vehicle: Klucel (hydroxypropylcellulose) (HPC)",116 % of control
same,T/C,"endpoint: median survival time, dose: 256.0 mg/kg/injection, schedule: Q01DX001 (oral), vehicle: Klucel (hydroxypropylcellulose) (HPC)",107 % of control
same,T/C,"endpoint: median survival time, dose: 256.0 mg/kg/injection, schedule: Q01DX001 (sc), vehicle: Klucel (hydroxypropylcellulose) (HPC)",104 % of control
same,T/C,"endpoint: median survival time, dose: 512.0 mg/kg/injection, schedule: Q01DX001 (oral), vehicle: Klucel (hydroxypropylcellulose) (HPC)",107 % of control
CS(=O)(=O)OCCN(CCOS(C)(=O)=O)c1ccc(C=O)cc1,T/C,"endpoint: mean survival time, dose: 3.12 mg/kg/injection, schedule: Q01DX009 (ip), vehicle: saline with Tween-80",113 % of control and 115 % of control
same,T/C,"endpoint: mean survival time, dose: 6.25 mg/kg/injection, schedule: Q01DX009 (ip), vehicle: saline with Tween-80",115 % of control and 112 % of control
same,T/C,"endpoint: mean survival time, dose: 12.5 mg/kg/injection, schedule: Q01DX009 (ip), vehicle: saline with Tween-80",117 % of control
same,T/C,"endpoint: mean survival time, dose: 12.5 mg/kg/injection, schedule: Q01DX009 (ip), vehicle: saline",96 % of control
same,T/C,"endpoint: mean survival time, dose: 25.0 mg/kg/injection, schedule: Q01DX009 (ip), vehicle: saline with Tween-80",112 % of control
same,T/C,"endpoint: mean survival time, dose: 25.0 mg/kg/injection, schedule: Q01DX009 (ip), vehicle: saline",102 % of control
same,T/C,"endpoint: mean survival time, dose: 50.0 mg/kg/injection, schedule: Q01DX009 (ip), vehicle: saline with Tween-80",95 % of control
O=C(Nc1ccccc1)c1c(O)[nH]c(=O)[nH]c1=O,T/C,"endpoint: median survival time, dose: 25.0 mg/kg/injection, schedule: Q01DX009 (ip), vehicle: saline with Tween-80",112 % of control [middle of 5 runs]
same,T/C,"endpoint: median survival time, dose: 50.0 mg/kg/injection, schedule: Q01DX009 (ip), vehicle: saline with Tween-80",124 % of control and 112 % of control and 108 % of control
same,T/C,"endpoint: median survival time, dose: 200.0 mg/kg/injection, schedule: Q01DX009 (ip), vehicle: saline with Tween-80",166 % of control and 179 % of control and 211 % of control
same,T/C,"endpoint: median survival time, dose: 400.0 mg/kg/injection, schedule: Q01DX009 (ip), vehicle: saline with Tween-80",233 % of control
Nc1nc(N)c(-c2ccc(Cl)cc2)c(CBr)n1,T/C,"endpoint: mean survival time, dose: 6.25 mg/kg/injection, schedule: Q01DX001 (ip), vehicle: saline",95 % of control
same,T/C,"endpoint: mean survival time, dose: 12.5 mg/kg/injection, schedule: Q01DX001 (ip), vehicle: saline",98 % of control
same,T/C,"endpoint: mean survival time, dose: 25.0 mg/kg/injection, schedule: Q01DX001 (ip), vehicle: saline with Tween-80",106 % of control
same,T/C,"endpoint: mean survival time, dose: 25.0 mg/kg/injection, schedule: Q01DX001 (ip), vehicle: saline",98 % of control
same,T/C,"endpoint: mean survival time, dose: 50.0 mg/kg/injection, schedule: Q01DX001 (ip), vehicle: saline with Tween-80",95 % of control
same,T/C,"endpoint: mean survival time, dose: 100.0 mg/kg/injection, schedule: Q01DX001 (ip), vehicle: saline with Tween-80",102 % of control and 110 % of control
